Patent publication US20100144708A1, “HETEROCYCLIC COMPOUNDS CONTAINING NITROGEN ATOMS OR PHARMACEUTICALLY ACCEPTABLE SALTS THEREOF, PROCESS FOR THE PREPARATION THEREOF AND PHARMACEUTICAL COMPOSITION COMPRISING THE SAME FOR TREATMENT OF CANCER” (Korea Research Instititute of Bioscience and Biotechnology, priority 2006, published 2010)

Tests used:
[1] = system: NUGC-3 (gastric cancer); assay: Test for inhibition of tumor cell growth (SRB), NUGC-3; assay type: cell-based, Human; settings: 48 hours, SRB staining; for GI50: Homo sapiens, NUGC-3
Summary of the method: (§1)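 Cells seeded in RPMI 1640 with 5% FBS, exposed to compound (final […], units as printed) for 48 hours at 37° C with 5% CO2, including a time-zero plate. TCA-fixed, SRB-stained, absorbance at 540 nm as percent of control; GI50 is the 50% growth-inhibition concentration.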

[2] = system: human prostate cancer cell line, PC-3 cells; assay: Western blot analysis in PC-3 cells; assay type: cell-based; settings: 0, 2, and 5 uM, 24 hours
Experimental: 4×10^6 of human prostate cancer cell line, PC-3 cells were cultured in 100 mm diameter-culture dishes with RPMI media containing 5% FBS for one day, and then treated with the compound prepared in Example 55 at concentrations of 0, 2, and 5 uM for 24 hours, respectively. Then, the cells were carefully washed with 10[…] of PBS twice, and 1 ml of PBS containing protease inhibitor cocktail (Roche, complete™-mini) (1 tablet/50[…] PBS) was added to the each dish. The cells were collected and sonicated. The sonicated cells were centrifuged using a microcentrifuge at 12000 rpm for 20 minutes, and the supernatant was collected. Then, the amount of protein was determined using a Bradford dye reagent (Bio-Rad), and after running 20[…] of the protein on an SDS-PAGE gel, the protein band was transferred to a nitrocellulose membrane (Bio-Rad). Subsequently, the amounts of each protein were analyzed using primary antibodies and secondary antibodies-HRP (horseradish peroxidase) that are specific to each protein to be tested (Amersham or Bio-Rad), and an ECL chemiluminescence reagent (Amersham).

[3] = system: ACHN (kidney cancer); assay: Test for inhibition of tumor cell growth (SRB), ACHN; assay type: cell-based, Human; settings: 48 hours, SRB staining; for GI50: Homo sapiens, ACHN
Summary of the method: as §1

[4] = system: PC-3 (prostate cancer); assay: Test for inhibition of tumor cell growth (SRB), PC-3; assay type: cell-based, Human; settings: 48 hours, SRB staining; for GI50: Homo sapiens, read-out: GI50 PC-3 (prostate ancer)
Summary of the method: as §1

[5] = system: human prostate cancer cell line PC-3; assay: Test for tumor growth inhibition in animal model (PC-3 xenograft); assay type: in vivo; settings: intraperitoneal; for effect of inhibiting tumor growth / reduction of tumor weight: final day (day 21)
Experimental: Female S.P.F BALB/c nude mice (7-week-old) were grafted with 3×10^7 cells/□ of human prostate cancer cell line PC-3, and then intraperitoneally administered with the compound prepared in Example 55 at a daily dosage of 30 mg/kg 20 times. A positive control group was intraperitoneally administered with adriamycin at a daily dosage of 2 mg/kg 10 times once every two days.
The changes in their body weight are shown in FIG. 1, the changes in tumor size are shown in FIG. 2, and the tumor weights measured on the final day (day 21) are shown in FIG. 3.

[6] = system: MBA-MB-231 (breast cancer); assay: Test for inhibition of tumor cell growth (SRB), MBA-MB-231; assay type: cell-based, Human; settings: 48 hours, SRB staining; for GI50: Homo sapiens
Summary of the method: as §1

[7] = system: human prostate cancer cell line, PC-3 cells; assay: Flow cytometric analysis of apoptosis (PI staining) with NAC; assay type: cell-based; settings: 5 uM NAC for 3 hours, then compound 5 uM for 24 hours; compared to cells treated with only the compound
Experimental: 5×10^5 of human prostate cancer cell line, PC-3 cells were cultured in 60 mm diameter-culture dishes with RPMI 1640 media containing 5% FBS in an incubator supplied with 5% CO2 at 37° C. for one day, and then treated with 5 uM NAC (N-acetylcysteine, Sigma) for 3 hours. Then, the cells were treated with the compound prepared in Example 55 at concentrations of 5 uM, cultured for 24 hours. Subsequently, the cells were treated with 0.1% trypsin and detached. The detached cells were transferred to a 15[…] conical tube, and centrifuged at 200×g for 5 minutes to precipitate the cells. Then, the supernatant was removed. 0.5[…] of PBS solution containing 0.1 mg/□ RNase A was added thereto, so as to resuspend the cells. The cells were treated with a PI (propidium iodide) DNA staining solution in a concentration of 50[…]/□ to stain the DNA in the cells for 30 or more minutes. The PI-stained cells were e xcited using a flow cytometer (Becton Dickinson) at 488 nm by a laser beam, and an emission wavelength of 588 nm was represented by a histogram, and then quantitatively analyzed to determine the amount of DNA in the cells.

[8] = 30 mg/kg daily, 20 times, vs vehicle-control, p<0.001

| Compound | GI50 [1] [µg/mL] | GI50 [3] [µg/mL] | GI50 [4] [µg/mL] | GI50 [6] [µg/mL] | also measured |
| --- | --- | --- | --- | --- | --- |
| CCCCCCCCCCCC(=O)N1CC[N+](CC)(Cc2cccc(C)c2)CC1 [Example 55, 4-dodecanoyl-1-ethyl-1-(3-methylbenzyl)piperazin-1-ium bromide] | 0.9 | 3.84 | 0.41 | 4.37 | amount of Bcl2 [2]: down-regulated; amount of RhoB [2]: increased; amount of c-abl [2]: increased; amount of p53 [2]: sharply increased; amount of phosphorylated p53 [2]: sharply increased; effect of inhibiting tumor growth [5, 8]: 84.0%; reduction of tumor weight [5, 8]: 79.5%; degree of apoptosis [7]: greatly decreased |
| C=CC[N+]1(C)CCCN(C(=O)CCCCCCCCCCCCCCC)CC1 (stereo not shown) [Example 120, 1-allyl-1-methyl-4-palmitoyl-1,4-diazepan-1-ium bromide] | 0.2 | 0.74 | 0.75 | 1.44 | – |
| CCCCCCCCCCCCCCCC(=O)N1CCC[N+](C)(Cc2ccc(F)cc2)CC1.[Br-] (stereo not shown) [Example 121, 1-(4-fluorobenzyl)-1-methyl-4-palmitoyl-1,4-diazepan-1-him bromide] | – | – | – | – | GI50 NUGC-3 (gastric cancer) [1]: 0.63 µg/mL; GI50 ACHN (kidney cancer) [3]: 1.09 µg/mL; GI50 PC-3 (prostate ancer) [4]: 0.46 µg/mL; GI50 MBA-MB-231 (breast cancer) [6]: 0.83 µg/mL |
| CCCCCCCCCCCCCCCC(=O)N1CCC[N+](C)(C)CC1 [Example 122, 4-hexadecanoyl-1,1-dimethyl-1,4-diazepan-1-ium iodide] | 0.21 | 0.4 | 0.4 | 0.94 | – |
| CCCCCCCCCCCCCC(=O)N1CCC[N+](C)(C)CC1 [Example 123, 1,1-dimethyl-4-tetradecanoyl-1,4-diazepan-1-ium iodide] | 0.08 | 0.49 | 0.36 | 0.98 | – |
| CCCCCCCCCCCCCC(=O)N1CCC[N+](C)(Cc2ccccc2)CC1 (stereo not shown) [Example 124, 1-benzyl-1-methyl-4-tetradecanoyl-1,4-diazepan-1-ium bromide] | 0.31 | 1 | 0.45 | 1.16 | – |
| CCCCCCCCCCCCCCCC(=O)N1CCC[N+](C)(Cc2ccccc2)CC1 (stereo not shown) [Example 125, 1-benzyl-1-methyl-4-palmitoyl-1,4-diazepan-1-ium bromide] | 0.53 | 0.8 | 0.35 | 0.86 | – |
| COc1cccc2c1C(=O)c1c(O)c3c(c(O)c1C2=O)C[C@@](O)(C(=O)CO)C[C@@H]3O[C@H]1C[C@H](N)[C@H](O)[C@H](C)O1 [adriamycin] | – | – | – | – | deaths ([5]; 2 mg/kg Q2D, 10 times): four; effect of inhibiting tumor growth ([5]; 2 mg/kg Q2D, 10 times, p<0.01): 74.4%; reduction of tumor weight ([5]; 2 mg/kg Q2D, 10 times, p<0.05): 69.8% |

Now from value to compound, other results behind:

| GI50 [1] [µg/mL] | GI50 [3] [µg/mL] | GI50 [4] [µg/mL] | GI50 [6] [µg/mL] | Compound | also measured |
| --- | --- | --- | --- | --- | --- |
| 0.26 | 0.44 | 0.18 | 0.45 | C=CC[N+]1(C)CCCN(C(=O)CCCCCCCCCCCCC)CC1 (stereo not shown) [Example 127, 1-allyl-1-methyl-4-tetradecanoyl-1,4-diazepan-1-ium bromide] | – |
| 0.46 | 0.82 | 0.18 | 0.71 | CCCCCCCCCCCCCC(=O)N1CCC[N+](C)(Cc2cccc([N+](=O)[O-])c2)CC1 (stereo not shown) [Example 128, 1-methyl-1-(3-nitrobenzyl)-4-tetradecanoyl-1,4-diazepan-1-ium bromide] | – |
| 0.26 | 0.57 | 0.24 | 0.67 | CCCCCCCCCCCCCCCCCC(=O)N1CCC[N+](C)(C)CC1 [Example 129, 1,1-dimethyl-4-stearoyl-1,4-diazepan-1-ium iodide] | – |
| 0.94 | 1.1 | 0.45 | 1.48 | CCCCCCCCCCCCCC(=O)N1CCC[N+](C)(Cc2ccc(F)cc2)CC1 (stereo not shown) [Example 133, 1-(4-fluorobenzyl)-1-methyl-4-tetradecanoyl-1,4-diazepan-1-ium bromide] | – |
